Among the test systems are ACHN renal; CAKI-1 renal; HCT-116 colon; OVCAR-8 ovarian; PC-3 prostate; SF-268 CNS; SF-295 CNS; SN12C renal; U251 CNS; SNB-19 CNS.
What all share (assay): NCI-60 cell line screen, 48 h

“And” between values parts separate entries of the source, which are not always exact repeats. Identical values can stand only once.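 96-well plates; 48 h exposure; 5 concentrations. Endpoints by linear interpolation between flanking doses. Not reached: highest tested concentration assigned. At the GI50, growth is halved. TGI marks complete inhibition of growth.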 Where only a bound is given, the exact number is not on record here.

On to `CSc1ccc2c(c1)N(CCC1CCCCN1C)c1ccccc1S2` (stereo unspecified), for which the GI50 with ACHN renal is 4.39 µM and 3.75 µM; in the test with CAKI-1 renal, 3.23 µM and 4.91 µM; with HCT-116 colon it was 5.58 µM and 3.3 µM; in the test on OVCAR-8 ovarian, 11.9 µM and 10.3 µM; in the test on PC-3 prostate, 4.27 µM and 3.63 µM; in the test with SF-268 CNS, 7.7 µM and 4.85 µM. Further, the GI50 was 8.64 µM and 2.86 µM in the test with SF-295 CNS; 4.81 µM and 6.05 µM in the test on SN12C renal; 5.92 µM and 3.53 µM in the test on U251 CNS. The TGI in the test with ACHN renal was 15.2 µM and 13.5 µM; with CAKI-1 renal, 13 µM and 18.3 µM; with HCT-116 colon, 19 µM and 12.9 µM; with OVCAR-8 ovarian, 27.5 µM and 29.3 µM; with PC-3 prostate, 16.6 µM and 13.8 µM; with SF-268 CNS, 21.6 µM and 17.7 µM. For the same compound, the TGI with SF-295 CNS is 22.6 µM and 8.7 µM; with SN12C renal, 18.8 µM and 19.3 µM; with U251 CNS, 19.2 µM and 12.2 µM.

Turning to `NCCCCCCCCCCCn1c2c(c3ccccc3c1=O)C(=O)c1ccccc1-2`, the GI50 was 3.11 µM in the test with ACHN renal; 8.62 µM in the test with CAKI-1 renal; 2.26 µM in the test on PC-3 prostate; 6.05 µM with SF-268 CNS; 2.7 µM in the test on SF-295 CNS; 1.98 µM with SN12C renal. The GI50 in the test with SNB-19 CNS is 6.77 µM; in the test on U251 CNS, 10.2 µM. Moreover, the TGI in the test on ACHN renal is 8.11 µM; with CAKI-1 renal it was 63.5 µM; in the test on PC-3 prostate, 7.12 µM; in the test on SF-268 CNS it was 49.1 µM; in the test on SF-295 CNS, 7.9 µM; with SN12C renal, 3.61 µM. The figures for the TGI in the test on SNB-19 CNS and with U251 CNS were 38.9 µM and 27.1 µM, respectively.

For the compound `CO[C@]12C=C/C(=C(/C(=O)OCc3cccnc3)C(=O)CCCCCCCC[C@@]3(OC)C=C/C(=C(/C(=O)OCc4cccnc4)C(=O)CCCCCCCC1)O3)O2`, the GI50 is 1.3 µM in the test on ACHN renal; 1.89 µM in the test on CAKI-1 renal; 0.275 µM in the test on HCT-116 colon; 0.959 µM in the test with OVCAR-8 ovarian; 1.74 µM in the test with PC-3 prostate; 1.47 µM in the test on SF-268 CNS. The figures for the GI50 in the test with SN12C renal, in the test with SNB-19 CNS and in the test on U251 CNS were 1.84 µM, 3.03 µM and 1.66 µM, respectively. In addition, the TGI was more than 50 µM in the test with ACHN renal; more than 50 µM in the test with CAKI-1 renal; 1.22 µM in the test on HCT-116 colon; more than 50 µM in the test on OVCAR-8 ovarian; more than 50 µM in the test with PC-3 prostate; 6.53 µM in the test on SF-268 CNS. The TGI in the test on SN12C renal is 34.2 µM; in the test with SNB-19 CNS, more than 50 µM; with U251 CNS, 8.58 µM.

`O=C1C(=O)c2ccccc2C(O)=C1CCCc1ccc(C2CCCC2)cc1`: the GI50 in the test on ACHN renal is 6.08 µM; in the test on CAKI-1 renal it was 3.15 µM; in the test on HCT-116 colon it was 3.55 µM; with OVCAR-8 ovarian, 5.8 µM; in the test with PC-3 prostate it was 3.3 µM; with SF-268 CNS, 5.1 µM. In addition, the figures for the GI50 with SF-295 CNS, with SN12C renal and with U251 CNS were 3.4 µM, 6.78 µM and 5.3 µM, respectively. In addition, the TGI in the test on ACHN renal came out at 39.6 µM; in the test with CAKI-1 renal, 11.8 µM; in the test on HCT-116 colon, 13.2 µM; in the test on OVCAR-8 ovarian, 60 µM; with PC-3 prostate it was 19.7 µM; with SF-268 CNS, 51.5 µM. Moreover, the values for the TGI in the test on SF-295 CNS, with SN12C renal and in the test on U251 CNS were 11 µM, 95 µM and 33.6 µM, respectively.

In the case of `O=c1c2cccc(F)c2sc2c(N3CCNCC3)nc3ccccc3c12`, the GI50 was 1.19 µM in the test with ACHN renal; 1.35 µM in the test on CAKI-1 renal; 0.931 µM with HCT-116 colon; 1.51 µM in the test on OVCAR-8 ovarian; 1.26 µM in the test with PC-3 prostate; 1.55 µM with SF-268 CNS. For the same compound, the GI50 with SF-295 CNS was 1.76 µM; in the test on SN12C renal, 1.32 µM; in the test with U251 CNS, 1.39 µM. The TGI in the test with ACHN renal was found to be 2.43 µM; in the test with CAKI-1 renal, 2.73 µM; in the test on HCT-116 colon it was 2.16 µM; with OVCAR-8 ovarian, 3.42 µM; in the test on PC-3 prostate, 2.7 µM; in the test with SF-268 CNS it was 3.26 µM. Moreover, the TGI amounted to 3.33 µM in the test on SF-295 CNS, 2.72 µM in the test with SN12C renal and 2.96 µM with U251 CNS.

With `CCCCCCC/C=C/[C@H]1O[C@]2(O)C(=O)C=C3C[C@@H](O[C@@H]4O[C@H](CO)[C@@H](O)C(O)[C@@H]4O)C[C@@H]3[C@H]2C=C1C` (stereo partly specified), the GI50 is 1.13 µM in the test on ACHN renal; 0.95 µM with HCT-116 colon; 1.01 µM in the test with OVCAR-8 ovarian; 1.56 µM with PC-3 prostate; 4.47 µM in the test with SF-268 CNS; 3.87 µM with SF-295 CNS. In addition, the GI50 was 2.8 µM in the test with SN12C renal, 3.52 µM with SNB-19 CNS and 1.1 µM with U251 CNS. Also, the TGI with ACHN renal worked out at 4.28 µM; with HCT-116 colon, 3.64 µM; in the test on OVCAR-8 ovarian, 3.92 µM; in the test on PC-3 prostate, 11.7 µM; with SF-268 CNS it was 10.3 µM; with SF-295 CNS, 8.79 µM. Also, the TGI with SN12C renal amounted to 10.7 µM; in the test with SNB-19 CNS, 8.04 µM; with U251 CNS, 4.49 µM.

For `NCCCn1c2c(c3ccc([N+](=O)[O-])cc3c1=O)C(=O)c1cc(-c3ccccc3)ccc1-2`, the GI50 in the test on ACHN renal was 1.56 µM; in the test with CAKI-1 renal, 1.67 µM; in the test on HCT-116 colon it was 0.172 µM; in the test with OVCAR-8 ovarian, 0.31 µM; in the test on PC-3 prostate, 1.35 µM; with SF-295 CNS, 1.79 µM. The GI50 is 0.824 µM in the test on SN12C renal and 0.172 µM with U251 CNS. The TGI in the test with ACHN renal was determined as 3.08 µM; with CAKI-1 renal, 3.21 µM; in the test on HCT-116 colon, 0.315 µM; in the test on OVCAR-8 ovarian it was 0.884 µM; with PC-3 prostate it was 2.71 µM; in the test on SF-295 CNS, 3.45 µM. Also, the TGI in the test on SN12C renal worked out at 2.34 µM; in the test with U251 CNS it was 0.313 µM.

On to `COc1cc2oc(-c3ccc(O)cc3O)c(CC=C(C)C)c(=O)c2c(O)c1/C=C/C(C)C`, for which the TGI turned out to be 8.12 µM in the test with ACHN renal; 3.93 µM with HCT-116 colon; 3.18 µM with OVCAR-8 ovarian; 8.2 µM in the test on PC-3 prostate; 5.52 µM in the test on SF-268 CNS; 12.3 µM in the test on SF-295 CNS. The TGI with SN12C renal stood at 3.35 µM; with SNB-19 CNS, 9.42 µM; in the test on U251 CNS it was 6.12 µM.

These data come from PubChem BioAssay (NCI).
